For 22 compounds, IC50 results are on record in patent US20230203060A1 (GENFLEET THERAPEUTICS (SHANGHAI) INC., priority 2020, published 2023).

The structures appear in SMILES notation.

Assay [1] deals with KRAS G12C mutant NCI-H358 cells. In words: Cell proliferation inhibition experiment, 3D spheroid, CellTiter-Glo, NCI-H358. The following applies: Homo sapiens, NCI-H358, 120 h, NCI-H358 (KRAS G12C mutant) 3D spheroid, 5 days with compound, CellTiter-Glo; read-out: H358 IC50. Type of assay: cell-based, human. The method, boiled down: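 First, H358 (800/well) or A549 (400/well) cells are plated in 2% FBS medium and left overnight to form spheroids. Next, compound is added as a 3.16-fold gradient at 0.1% DMSO for 5 days. Finally, CellTiter-Glo signal is read and IC50 derived by four-parameter fitting.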
In general terms: In ATP-based viability assays light output follows the ATP content of the culture.

Assay [2] relates to phosphorylated ERK downstream of KRAS G12C in MIA PaCa2 cells. In words: Cell p-ERK detection experiment (HTRF) in MIA PaCa2. Format: cell-based, human. The conditions noted are these: Homo sapiens, MIA PaCa-2, 2 h, MIA PaCa2 cells, 2 hours with compound, Advance ERK phospho-T202/Y204 HTRF kit; read-out: p-ERK IC50. In outline:
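Phospho-ERK (T202/Y204) measured by HTRF after 30 min lysis and 4 h antibody incubation in MIA PaCa2 (KRAS G12C) cells, seeded at 2.5E4 per well and treated 2 h with compounds in 3.16-fold steps, final DMSO 0.1%. IC50 from a four-parameter fit of percent inhibition relative to DMSO and blank wells.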

For the compound `C=CC(=O)N1CCN2C(=O)c3c(N4C[C@H](OC)C[C@@H]4C)nc(-c4c(O)cccc4F)c(Cl)c3OC[C@H]2C1` [Z259a, (6aR)-8-acryloyl-4-chloro-3-(2-fluoro-6-hydroxyphenyl)-1-((2S,4R)-4-methoxy-2-methylpyrrolidin-1-yl)-6,6a,7,8,9,10-hexahydro-12H-pyrazino[2,1-c]pyrido[3,4-f][1,4]oxazepin-12-one], the IC50 – broadly, the midpoint of a concentration-inhibition curve – in assay [1] worked out at 3 nM; in assay [2], 27 nM.
Taken in the same sequence, the figures for `C=CC(=O)N1CCN2C(=O)c3c(N4C[C@@H](OC)C[C@@H]4C)nc(-c4c(O)cccc4F)c(Cl)c3OC[C@H]2C1` [Z260a, (6aR)-8-acryloyl-4-chloro-3-(2-fluoro-6-hydroxyphenyl)-1-((2S,4S)-4-methoxy-2-methylpyrrolidin-1-yl)-6,6a,7,8,9,10-hexahydro-12H-pyrazino[2,1-c]pyrido[3,4-f][1,4]oxazepin-12-one] were 2.4 nM and 22 nM.
For the compound `C=CC(=O)N1CCN2C(=O)c3c(N4CC(C#N)CC4(C)C)nc(-c4c(O)cccc4F)c(Cl)c3OC[C@H]2C1` (stereo partly drawn) [Z275, (6aR)-8-acryloyl-1-(4-cyano-2,2-dimethylpyrrolidin-1-yl)-4-chloro-3-(2-fluoro-6-hydroxyphenyl)-6,6a,7,8,9,10-hexahydro-12H-pyrazino[2,1-c]pyrido[3,4-f][1,4]oxazepin-12-one], the concentration for half-maximal inhibition (IC50) in assay [1] was found to be 2.1 nM; in assay [2], 16 nM.
`C=CC(=O)N1CCN2C(=O)c3c(N4CC(C)(C)OC[C@@H]4C)nc(-c4c(O)cccc4F)c(Cl)c3OC[C@H]2C1` [Z276-1, (6aR)-8-acryloyl-4-chloro-3-(2-fluoro-6-hydroxyphenyl)-1-((S)-2,2,5-trimethylmorpholino)-6,6a,7,8,9,10-hexahydro-12H-pyrazino[2,1-c]pyrido[3,4-f][1,4]oxazepin-12-one]: the IC50 in assay [1] was found to be 7.6 nM; in assay [2] it was 83 nM.
The matching figures for `C=CC(=O)N1CCN2C(=O)c3c(N4CCC[C@@]4(C)CO)nc(-c4c(O)cccc4F)c(Cl)c3OC[C@H]2C1` [Z279-2]: 3.8 nM and 35 nM.
Take `C=CC(=O)N1CCN2C(=O)c3c(N4Cc5cn(C)nc5C4C)nc(-c4c(O)cccc4F)c(Cl)c3OC[C@H]2C1` (some centres unmarked) [Z291-2]: the values for the IC50 in assay [1] and in assay [2] were 3.5 nM and 24 nM, respectively.
In the case of `C=CC(=O)N1CCN2C(=O)c3c(N4Cc5cn(C)nc5C4(C)C)nc(-c4c(O)cccc4F)c(Cl)c3OC[C@H]2C1` [Z310, (6aR)-8-acryloyl-1-(2,6,6-trimethylpyrrolo[3,4-c]pyrazol-5(2H,4H,6H)-yl)-4-chloro-3-(2-fluoro-6-hydroxyphenyl)-6,6a,7,8,9,10-hexahydro-12H-pyrazino[2,1-c]pyrido[3,4-f][1,4]oxazepin-12-one], the IC50 was determined as 10.6 nM in assay [1] and 104 nM in assay [2].
Regarding `C=CC(=O)N1CCN2C(=O)c3c(N4CCN(C)C(=O)[C@@H]4C)nc(-c4c(O)cccc4F)c(Cl)c3OC[C@H]2C1` [Z311-1, (6aR)-8-actyloyl-4-chloro-1-((S)-2,4-dimethyl-3-oxopiperazin-1-yl)-3-(2-fluoro-6-hydroxyphenyl)-6,6a,7,8,9,10-hexahydro-12H-pyrazino[2,1-c]pyrido[3,4-f][1,4]oxazepin-12-one], the IC50 in assay [1] amounted to 10 nM; in assay [2] it was 70 nM.
For `C=CC(=O)N1CCN2C(=O)c3c(N4CCN(C5CC5)C[C@@H]4C)nc(-c4c(O)cccc4F)c(Cl)c3OC[C@H]2C1` [Z312-1, (6aR)-8-acryloyl-4-chloro-1-((S)-4-cyclopropyl-2-methylpiperazin-1-yl)-3-(2-fluoro-6-hydroxyphenyl)-6,6a,7,8,9,10-hexahydro-12H-pyrazino[2,1-c]pyrido[3,4-f][1,4]oxazepin-12-one], the figures for the IC50 in assay [1] and in assay [2] were 13.5 nM and 194 nM, respectively.
In the case of `C=CC(=O)N1CCN2C(=O)c3c(N4CCN(C(C)=O)C[C@@H]4C)nc(-c4c(O)cccc4F)c(Cl)c3OC[C@H]2C1` [Z313-1], the IC50 in assay [1] worked out at 1.6 nM; in assay [2], 23 nM.
Take `C=CC(=O)N1CCN2C(=O)c3c(N4CCOCC4)nc(-c4nc(N)cc(C)c4C(F)(F)F)c(Cl)c3OC[C@H]2C1` [Z314]: the 50% inhibitory concentration (IC50) in assay [1] was 6 nM; in assay [2], 62 nM.
Taken in the same sequence, the figures for `C=CC(=O)N1CCN2C(=O)c3c(N4CCN(C(C)=O)C(C)(C)C4)nc(-c4c(O)cccc4F)c(Cl)c3OC[C@H]2C1` [Z315, (6aR)-1-(4-acetyl-3,3-dimethylpiperazin-1-yl)-8-acryloyl-4-chloro-3-(2-fluoro-6-hydroxyphenyl)-6,6a,7,8,9,10-hexahydro-12H-pyrazino[2,1-c]pyrido[3,4-f][1,4]oxazepin-12-one] were 5 nM and 62 nM.
Taken in the same sequence, the figures for `C=CC(=O)N1CCN2C(=O)c3c(N4CCN(C(=O)CC)C[C@@H]4C)nc(-c4c(O)cccc4F)c(Cl)c3OC[C@H]2C1` [Z316-1, (6aR)-8-acryloyl-4-chloro-3-(2-fluoro-6-hydroxyphenyl)-1-((S)-2-methyl-4-propionylpiperazin-1-yl)-6,6a,7,8,9,10-hexahydro-12H-pyrazino[2,1-c]pyrido[3,4-f][1,4]oxazepin-12-one] were 1.3 nM and 20 nM.
Turning to `C=CC(=O)N1CCN2C(=O)c3c(N4CCN(S(C)(=O)=O)C[C@@H]4C)nc(-c4c(O)cccc4F)c(Cl)c3OC[C@H]2C1` [Z318-1, (6aR)-8-acryloyl-1-((S)-2-methyl-4-(methylsulfonyl)piperazin-1-yl)-4-chloro-3-(2-fluoro-6-hydroxyphenyl)-6,6a,7,8,9,10-hexahydro-12H-pyrazino[2,1-c]pyrido[3,4-f][1,4]oxazepin-12-one], the IC50 in assay [1] was 5.7 nM; in assay [2], 87 nM.
With `C=CC(=O)N1CCN2C(=O)c3c(N4CC(=O)N(CC)C[C@@H]4C)nc(-c4c(O)cccc4F)c(Cl)c3OC[C@H]2C1` [Z319-1, (6aR)-8-acryloyl-4-chloro-1-((S)-4-ethyl-2-methyl-5-oxopiperazin-1-yl)-3-(2-fluoro-6-hydroxyphenyl)-6,6a,7,8,9,10-hexahydro-12H-pyrazino[2,1-c]pyrido[3,4-f][1,4]oxazepin-12-one], the half-maximal inhibitory concentration (IC50) in assay [1] was 2.3 nM; in assay [2], 16 nM.
The matching figures for `C=CC(=O)N1CCN2C(=O)c3c(N4CCN(C(=O)C5CC5)C[C@@H]4C)nc(-c4c(O)cccc4F)c(Cl)c3OC[C@H]2C1` [Z320-1, (6aR)-8-acryloyl-4-chloro-1-((S)-4-(cyclopropanecarbonyl)-2-methylpiperazin-1-yl)-3-(2-fluoro-6-hydroxyphenyl)-6,6a,7,8,9,10-hexahydro-12H-pyrazino[2,1-c]pyrido[3,4-f][1,4]oxazepin-12-one]: 1.3 nM and 17 nM.
Take `C=CC(=O)N1CCN2C(=O)c3c(N4CCN(CCOC)C(C)(C)C4)nc(-c4c(O)cccc4F)c(Cl)c3OC[C@H]2C1` [Z321, (6aR)-8-acryloyl-4-chloro-3-(2-fluoro-6-hydroxyphenyl)-1-(4-(2-methoxyethyl)-3,3-dimethylpiperazin-1-yl)-6,6a,7,8,9,10-hexahydro-12H-pyrazino[2,1-c]pyrido[3,4-f][1,4]oxazepin-12-one]: the IC50 in assay [1] is 4.5 nM; in assay [2], 50 nM.
With `C=CC(=O)N1CCN2C(=O)c3c(N4CCN(CC)C(C)(C)C4)nc(-c4c(O)cccc4F)c(Cl)c3OC[C@H]2C1` [Z322, (6aR)-8-actyloyl-4-chloro-3-(2-fluoro-6-hydroxyphenyl)-1-(4-ethyl-3,3-dimethylpiperazin-1-yl)-6,6a,7,8,9,10-hexahydro-12H-pyrazino[2,1-c]pyrido[3,4-f][1,4]oxazepin-12-one], the IC50 in assay [1] was found to be 4.5 nM; in assay [2], 36 nM.
For the compound `C=CC(=O)N1CCN2C(=O)c3c(N4CC(N(C)C5COC5)CC4(C)C)nc(-c4c(O)cccc4F)c(Cl)c3OC[C@H]2C1` (stereo partly drawn) [Z326, (6aR)-8-acryloyl-4-chloro-1-(2,2-dimethyl-4-(methyl(oxetan-3-yl)amino)pyrrolidin-1-yl)-3-(2-fluoro-6-hydroxyphenyl)-6,6a,7,8,9,10-hexahydro-12H-pyrazino[2,1-c]pyrido[3,4-f][1,4]oxazepin-12-one], the IC50 in assay [1] was found to be 0.7 nM; in assay [2] it was 6 nM.
Taken in the same sequence, the figures for `C=CC(=O)N1CCN2C(=O)c3c(N4CCN(C)C[C@@H]4C)nc(-c4nc(N)cc(C)c4C(F)(F)F)c(Cl)c3OC[C@H]2C1` [Z328-1, (R)-8-acryloyl-3-(6-amino-4-methyl-3-(trifluoromethyl)pyridin-2-yl)-4-chloro-1-((S)-2,4-dimethylpiperazin-1-yl)-6,6a,7,8,9,10-hexahydro-12H-pyrazino[2,1-c]pyrido[3,4-f][1,4]oxazepin-12-one] were 2.2 nM and 15 nM.
In the case of `C=CC(=O)N1CCN2C(=O)c3c(N4CCC(N(C)C)C4(C)C)nc(-c4c(O)cccc4F)c(Cl)c3OC[C@H]2C1` (stereo partly drawn) [Z334, (6aR)-8-acryloyl-4-chloro-1-(3-(dimethylamino)-2,2-dimethylpyrrolidin-1-yl)-3-(2-fluoro-6-hydroxyphenyl)-6,6a,7,8,9,10-hexahydro-12H-pyrazino[2,1-c]pyrido[3,4-f][1,4]oxazepin-12-one], the IC50 turned out to be 9 nM in assay [1] and 62 nM in assay [2].
Taken in the same sequence, the figures for `C=CC(=O)N1CCN2C(=O)c3c(N4CC(C#N)CC4(C)C)nc(-c4c(O)cccc4F)c(F)c3OC[C@H]2C1` (some centres unmarked) [Z335] were 11 nM and 130 nM.
